The text below walks through data of patent US5200335A (Forschungszentrum Juelich GmbH, priority 1990, dated 1993).

In assay [1] the target is T1, phenylethanol dehydrogenase (Lentilactobacillus kefiri, UniProt Q6WVP7).
T1 sequence (Q6WVP7 2-252 limits assumed): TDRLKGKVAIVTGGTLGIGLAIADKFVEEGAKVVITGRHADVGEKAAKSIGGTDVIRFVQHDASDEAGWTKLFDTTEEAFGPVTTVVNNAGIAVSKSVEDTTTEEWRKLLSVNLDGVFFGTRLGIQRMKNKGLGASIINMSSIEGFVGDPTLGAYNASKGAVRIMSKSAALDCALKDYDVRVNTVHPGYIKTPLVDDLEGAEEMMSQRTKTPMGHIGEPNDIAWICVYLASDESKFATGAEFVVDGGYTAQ
Briefly: NADPH-dependent reduction: substrate spectrum and dependence of reaction rate on acetophenone/NADPH concentration.

Assay [2] concerns the target T1, phenylethanol dehydrogenase. Briefly: Effect of metal cations, inhibitors and SH-protecting reagents on enzyme activity. It counts as biochemical, Lactobacillus kefir. The protocol: Partially purified enzyme (after Mono-Q chromatography, concentrated 20-fold) was employed for the following tests.
(i) METAL CATIONS: The effect of Mg^2+, […] and Mn^2+ ions was investigated using the assay mixture detailed below. […]
(ii) INHIBITORS AND SH-[…]: An assay mixture according to Example 2 C(i) without added metal cations but with addition of various inhibitors or SH-[…] at a final concentration of 1 mM was used to determine the effect of certain enzyme inhibitors and SH-[…] on enzyme activity. […] Phenylmethanesulfonyl fluoride was dissolved in acetonitrile to a final concentration of acetonitrile of […]. Acetonitrile alone had no effect on the enzyme activity in control tests.

For assay [3] the target is unchanged. Briefly: NADP+-dependent oxidation / reverse reaction with R(+)- or S(-)-phenylethanol. To be noted: for Enzyme activity (oxidation): 11 mM alcohol, pH 8.0, NADP+, 340 nm, 30° C.; for Vmax: NADP+-dependent oxidations; for Stereospecificity / effect on the enzyme (in words): comparison of mixtures I, II and III.
Procedure: The optimum pH for the reverse reaction, the oxidation of phenylethanol, was measured in an analogous manner. (±)-Phenylethanol (22 mM) was dissolved in aliquots of a 0.1M buffer and the pH was adjusted to a range from 4.0 to 10.0.
A third mixture containing 22 mM (±)-phenylethanol was employed for comparison. Enzyme activity was measured by photometry at 340 nm at 30° C.
[4] abbreviates: NADPH-dependent reductions, pH 7.0, 0.2 mM NADPH, partially purified enzyme.
[5] abbreviates: pH 7, read-out: Activity remaining.
[6] abbreviates: NADPH-dependent reductions, […].
The mark [7] stands for this setting: addition at final concentration 1 mM; 5.5 mM acetophenone, 0.2 mM NADPH, pH 7.0; partially purified enzyme.
Where [8] appears, read: pH 7; read-out: Activity remaining.

“Also recorded” adds a separate entry of the source. Read-outs that look alike come from different tables or passages of the source.

In the case of `CC(=O)CCc1ccccc1` [4-Phenyl-2-butanone], in assay [1] (setting [4]), the Vmax is given as 90%. In assay [1] (in the presence of NADPH), the “Reduction by the enzyme (in words)” value was “capable of catalyzing the reduction; also recorded: capable of reducing”. In the case of `O=C(O)CN(CCN(CC(=O)O)CC(=O)O)CC(=O)O` [EDTA], in assay [2], the “Effect on enzyme activity (in words)” value is “completely inhibited; also recorded: rapidly inactivated; also recorded: rapid inactivation”. For the same molecule, the remaining activity (commonly the signal under treatment as a percentage of the control signal) at 1000 µM in assay [2] (setting [5]) stood at 0%.

For the molecule `C[C@@H](O)c1ccccc1` [R(+)-Phenylethanol], in assay [3], the “Enzyme activity (oxidation)” value amounted to 3.5 U/ml, the Vmax was determined as 11% and the “Stereospecificity / effect on the enzyme (in words)” value is reported as “highly specific”. In the case of `CC(C)=O` [Acetone], the Vmax in assay [1] (setting [6]) is recorded as 96%. Besides, the “Reduction by the enzyme (in words)” value in assay [1] (in the presence of NADPH) is “capable of catalyzing the reduction; also recorded: capable of reducing”.

In the case of `[Cl-].[Cl-].[Zn+2]` [ZnCl2], in assay [2] (setting [7]), the Activity remaining is recorded as 114%. As to `CCCCCC(=O)CC` [Ethyl pentyl ketone], the Vmax in assay [1] (setting [4]) came to 66%. Also, the “Reduction by the enzyme (in words)” value in assay [1] (in the presence of NADPH) was “capable of catalyzing the reduction; also recorded: capable of reducing”. On to `CC(=O)c1ccc(Br)cc1` [4-Bromoacetophenone], for which, in assay [1] (setting [6]), the Vmax is 101%. In assay [1] (in the presence of NADPH, listed as p-bromoacetophenone), the “Reduction by the enzyme (in words)” value was “capable of catalyzing the reduction; also recorded: capable of reducing”. Take `NC(=O)C1=CN([C@@H]2O[C@H](COP(=O)(O)OP(=O)(O)OC[C@H]3O[C@@H](n4cnc5c(N)ncnc54)[C@H](OP(=O)(O)O)[C@@H]3O)[C@@H](O)[C@H]2O)C=CC1` [NADPH]: in assay [1] (5.3 mM acetophenone, pH 7.0, 30° C.), the “NADPH concentration at maximum enzyme activity” value came to 190 µM. The Vmax in assay [1] (setting [4]) stood at 100%. This molecule also gave a Maximum enzyme activity in assay [1] (at 190 μM NADPH, 5.3 mM acetophenone) of 16.9 U/ml. As to Triton X-100, the Activity remaining in assay [2] (setting [7]) came to 94%.

As for `CCC(=O)c1ccccc1` [Propiophenone], the Vmax in assay [1] (setting [6]) was 43%. The “Reduction by the enzyme (in words)” value in assay [1] (in the presence of NADPH) is reported as “capable of catalyzing the reduction; also recorded: capable of reducing”.

On to `O=Cc1ccccc1` [Benzaldehyde], for which the Vmax in assay [1] (setting [6]) stood at 10%. For `C[C@H](O)c1ccccc1` [Mixture II, S(-)-phenylethanol], in assay [3], the “Enzyme activity (oxidation)” value is reported as 0 U/ml and the “Stereospecificity / effect on the enzyme (in words)” value is “inhibits the enzyme”.

`O[C@H](CS)[C@H](O)CS` (racemic) [Dithiothreitol]: in assay [2] (setting [8]), the remaining activity at 1000 µM came out at 95%. Consider `O=C(O)c1cc[c]([Hg][OH])cc1` [p-Hydroxymercurybenzoate], for which the “Effect on enzyme activity (in words)” value in assay [2] is reported as “relatively weak inhibition”. The Activity remaining in assay [2] (addition at final concentration 0.1 mM; 5.5 mM acetophenone, 0.2 mM NADPH, pH 7.0; partially purified enzyme) amounted to 92%.

Take `CC(=O)c1ccccc1` [Acetophenone]: the Vmax in assay [1] (setting [4]) was found to be 100%. Also, the “Substrate concentration at maximum enzyme activity” value in assay [1] (acetophenone conversion, 0.2 mM NADPH, pH 7.0, 30° C.) is on record as 5.3 mM. Also, the Maximum activity in assay [1] (at 5.3 mM acetophenone, 0.2 mM NADPH) came out at 18.6 U/ml. Moreover, the “Reduction by the enzyme (in words)” value in assay [1] (in the presence of NADPH) is on record as “capable of catalyzing the reduction; also recorded: capable of reducing”. In addition, in assay [1] (up to an acetophenone concentration of 10.6 mM), the Excess substrate inhibition entry is “no excess substrate inhibition”. Take `[Cl-].[Cl-].[Mg+2]` [MgCl2]: in assay [2] (setting [7]), the Activity remaining is given as 132%. Turning to `CC(=O)c1ccc2ccccc2c1` [Methyl 2-naphthyl ketone], the Vmax in assay [1] (setting [4]) turned out to be 11%. As to `CCN1C(=O)C=CC1=O` [N-Ethylmaleimide], the “Effect on enzyme activity (in words)” value in assay [2] is given as “relatively weak inhibition”. In assay [2] (setting [8]), the remaining activity at 1000 µM came out at 81%. Turning to (±)-Methylcyclohexanone, in assay [1] (setting [4]), the Michaelis-Menten constant (Km) (in general, the concentration of substrate that gives half-maximal velocity) was 70 mM and the Vmax is recorded as 109%. In assay [1] (in the presence of NADPH), the “Reduction by the enzyme (in words)” value is “capable of catalyzing the reduction; also recorded: capable of reducing”. Consider `[Cl][Mn][Cl]` [MnCl2], for which the Activity remaining in assay [2] (setting [7]) turned out to be 114%. With `NC(=O)c1ccc[n+]([C@@H]2O[C@H](COP(=O)(O)OP(=O)(O)OC[C@H]3O[C@@H](n4cnc5c(N)ncnc54)[C@H](OP(=O)(O)O)[C@@H]3O)[C@@H](O)[C@H]2O)c1` [NADP^+], the Vmax in assay [3] is on record as 17%. On to `O=S(=O)(F)Cc1ccccc1` [Phenylmethanesulfonyl fluoride], for which the Activity remaining in assay [2] (setting [7]) is 94%. As for `c1cnc2c(c1)ccc1cccnc12` [1,10-Phenanthroline], the “Effect on enzyme activity (in words)” value in assay [2] was “virtually no inhibition”. The remaining activity at 1000 µM in assay [2] (setting [8]) was 99%. On to `CC(=O)C=C(C)C` [Mesityl oxide, 4-methyl-3-pentene-2-one], for which the Vmax in assay [1] (setting [6]) worked out at 12%. Consider `CCCCCCC(C)=O` [Methyl hexyl ketone], for which the Vmax in assay [1] (setting [4]) amounted to 91%. Besides, the “Reduction by the enzyme (in words)” value in assay [1] (in the presence of NADPH) was “capable of catalyzing the reduction; also recorded: capable of reducing”.

Consider `c1ccc(-c2ccccn2)nc1` [2,2'-Dipyridine], for which the “Effect on enzyme activity (in words)” value in assay [2] is reported as “virtually no inhibition”. Besides, in assay [2] (setting [8]), the remaining activity at 1000 µM was 106%. Take `NC(=O)CI` [Iodoacetamide]: the “Effect on enzyme activity (in words)” value in assay [2] is reported as “relatively weak inhibition”. Moreover, in assay [2] (setting [8]), the remaining activity at 1000 µM came out at 90%. For the molecule `N[C@@H](CCC(=O)N[C@@H](CS)C(=O)NCC(=O)O)C(=O)O` [Glutathione], in assay [2] (setting [5]), the remaining activity at 1000 µM worked out at 99%. Turning to `CC(=O)C(C)(C)C` [Pinacolone], the “Reduction by the enzyme (in words)” value in assay [1] is given as “capable of catalyzing the reduction; also recorded: capable of reducing”. Also, in assay [1] (pH 7), the Vmax is given as 53%. As for `CC(=O)C(=O)c1ccccc1` [1-Phenyl-1,2-propanedione], the Vmax in assay [1] (setting [6]) is 70%. The “Reduction by the enzyme (in words)” value in assay [1] (in the presence of NADPH) is “capable of catalyzing the reduction; also recorded: capable of reducing”. In the case of `CC(=O)c1ccc(Cl)cc1` [4-Chloroacetophenone], the Vmax in assay [1] (setting [6]) came out at 93%. For the same molecule, the “Reduction by the enzyme (in words)” value in assay [1] (in the presence of NADPH, listed as p-chloroacetophenone) is reported as “capable of catalyzing the reduction; also recorded: capable of reducing”.

As for `CC(C)O` [Isopropanol], the Vmax in assay [3] is listed as 18%.
